According to patent publication US20250339569A1, “CARBONIC ANHYDRASE IX LIGANDS” (priority 2021, published 2025):
Starred links: 1 amine or outer side, 2 acyl side, 3 side chain; linkers in the order of their positions; H or OH if unused. Positions of bridges follow the written chain, without caps; N, C: chain ends. Non-standard residues stand in square brackets, D forms with d. Residues, ends and D or L forms follow the SMILES beside them. *: point of attachment. NH(1-deoxy-D-glucityl) = OC[C@@H](O)[C@@H](O)[C@H](O)[C@@H](O)CN*; DOTA = O=C(O)CN1CCN(CC(=O)O)CCN(CC(=O)*)CCN(CC(=O)O)CC1; mXylylene = c1cc(C[*:1])cc(C[*:2])c1; X2 = O=C(CN1CCC(N[*:1])CC1)[*:2]; NMeD = CN[C@@H](CC(=O)O)C(=O)O

Tests used:
[1] = molecular target: T1, CAIX-expressing human HT-29 colorectal cancer cells (Homo sapiens, UniProt Q16790); experiment: FACS binding assay (IC50 determination, competition with tracer 3BP-2776 or 3BP-4149); conditions: FACS binding assay, HT-29 cells, competition with tracer 3BP-2776 (10 nM, biotin-labeled), 4° C., 1 hour; read-out: pIC50 category (activity) (converted)
T1 construct: CAIX-expressing human HT-29 colorectal cancer cells; host or cells: HT-29 human colorectal cancer cells
Outline: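 HT-29 cells in FACS buffer (PBS, 1% FCS) at 500.000 cells/ml were exposed to compounds competing with a labelled tracer, with biotinylated compounds detected by 1 μg/mL APC-streptavidin for 30 min on ice. APC/Cy5 median fluorescence was read by flow cytometry and IC50 derived by 4PL fit.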

[2] = molecular target: T2, human carbonic anhydrase IX (hCAIX-Fc) (Homo sapiens, UniProt Q16790); experiment: Surface plasmon resonance assay with hCAIX-Fc; format: binding; conditions: 25° C.; for t1/2 category (activity): SPR dissociation half-life, hCAIX-Fc; for Kd: SPR, hCAIX-Fc captured, read-out: pKD category (activity) (converted)
T2 construct: purchased SinoBliological (Sino Biological) 10107-H02H

Row | IC50 [1] [nM] | t1/2 category (activity) [2] | Kd [2] [nM] | SMILES
1 | < 10 | B (t1/2 between 5.1 and 15.0 minutes) | < 10 | CC(C)C[C@@H]1NC(=O)[C@H](Cc2c[nH]c3ccccc23)NC(=O)[C@H](CC(=O)O)NC(=O)[C@H]2CCCN2C(=O)[C@H](CCC(N)=O)NC(=O)[C@@H](NC(=O)[C@H](Cc2ccc(O)cc2)NC(=O)[C@@H](NC(=O)CN2CCC(NC(=O)CN3CCN(CC(=O)O)CCN(CC(=O)O)CCN(CC(=O)O)CC3)CC2)C(C)C)CSCc2cccc(c2)CSC[C@@H](C(N)=O)NC(=O)[C@H](CO)NC(=O)[C@H](Cc2c[nH]c3ccccc23)NC(=O)[C@H]([C@@H](C)O)NC1=O [3BP-4104] ({DOTA}-[X2]VYCQ[dP]DWLTWSC-NH2; linker 4-13 via mXylylene)
2 | < 10 | B (t1/2 between 5.1 and 15.0 minutes) | < 10 | CC(C)C[C@@H]1NC(=O)[C@H](Cc2c[nH]c3ccccc23)NC(=O)[C@H](CC(=O)O)NC(=O)[C@H]2CCCN2C(=O)[C@H](CCC(=O)O)NC(=O)[C@@H](NC(=O)[C@H](CO)NC(=O)[C@@H](NC(=O)CN2CCC(NC(=O)CN3CCN(CC(=O)O)CCN(CC(=O)O)CCN(CC(=O)O)CC3)CC2)C(C)C)CSCc2cccc(c2)CSC[C@@H](C(N)=O)NC(=O)[C@H](CO)NC(=O)[C@H](Cc2c[nH]c3ccccc23)NC(=O)[C@H]([C@@H](C)O)NC1=O [3BP-4105] ({DOTA}-[X2]VSCE[dP]DWLTWSC-NH2; linker 4-13 via mXylylene)
3 | < 10 | A (t1/2>15.0 minutes) | < 10 | CC(C)C[C@@H]1NC(=O)[C@H](Cc2c[nH]c3ccccc23)NC(=O)[C@H](CC(=O)O)N(C)C(=O)[C@H]2CCCN2C(=O)[C@H](CCC(=O)O)NC(=O)[C@@H](NC(=O)[C@H](Cc2ccc(O)cc2)NC(=O)[C@@H](NC(=O)CN2CCC(NC(=O)CN3CCN(CC(=O)O)CCN(CC(=O)O)CCN(CC(=O)O)CC3)CC2)C(C)C)CSCc2cccc(c2)CSC[C@@H](C(N)=O)NC(=O)[C@H](CO)NC(=O)[C@H](Cc2c[nH]c3ccccc23)NC(=O)[C@H]([C@@H](C)O)NC1=O [3BP-4107] ({DOTA}-[X2]VYCE[dP][NMeD]WLTWSC-NH2; linker 4-13 via mXylylene)
4 | < 10 |  | < 10 | CC(C)C[C@@H]1NC(=O)[C@H](Cc2c[nH]c3ccccc23)NC(=O)[C@H](CC(=O)O)NC(=O)[C@@H](CCC(=O)NC[C@H](O)[C@@H](O)[C@H](O)[C@H](O)CO)NC(=O)[C@H](CCC(=O)O)NC(=O)[C@@H](NC(=O)[C@H](Cc2ccc(O)cc2)NC(=O)[C@@H](NC(=O)CN2CCC(NC(=O)CN3CCN(CC(=O)O)CCN(CC(=O)O)CCN(CC(=O)O)CC3)CC2)C(C)C)CSCc2cccc(c2)CSC[C@@H](C(N)=O)NC(=O)[C@H](CO)NC(=O)[C@H](Cc2c[nH]c3ccccc23)NC(=O)[C@H]([C@@H](C)O)NC1=O [3BP-4119] ({DOTA}-[X2]VYCE[dE](NH(1-deoxy-D-glucityl))DWLTWSC-NH2; linker 4-13 via mXylylene)
5 | < 10 | A (t1/2>15.0 minutes) | < 10 | CC(C)C[C@@H]1NC(=O)[C@H](Cc2c[nH]c3ccccc23)NC(=O)[C@H](CC(=O)O)NC(=O)[C@H]2CCCN2C(=O)[C@H](CCC(=O)O)NC(=O)[C@@H](NC(=O)[C@H](Cc2ccc(O)cc2)NC(=O)[C@@H](NC(=O)CN2CCC(NC(=O)CN3CCN(CC(=O)O)CCN(CC(=O)O)CCN(CC(=O)O)CC3)CC2)C(C)C)CSCc2cccc(c2)CSC[C@@H](C(N)=O)NC(=O)[C@H](CO)NC(=O)[C@H](Cc2c[nH]c3ccccc23)NC(=O)[C@H](CCC(=O)NC[C@H](O)[C@@H](O)[C@H](O)[C@H](O)CO)NC1=O [3BP-4121] ({DOTA}-[X2]VYCE[dP]DWLE(NH(1-deoxy-D-glucityl))WSC-NH2; linker 4-13 via mXylylene)
